Where only a bound is given, the exact number is not on record here.

Sequence of HPK1 (Q92918 whole entry): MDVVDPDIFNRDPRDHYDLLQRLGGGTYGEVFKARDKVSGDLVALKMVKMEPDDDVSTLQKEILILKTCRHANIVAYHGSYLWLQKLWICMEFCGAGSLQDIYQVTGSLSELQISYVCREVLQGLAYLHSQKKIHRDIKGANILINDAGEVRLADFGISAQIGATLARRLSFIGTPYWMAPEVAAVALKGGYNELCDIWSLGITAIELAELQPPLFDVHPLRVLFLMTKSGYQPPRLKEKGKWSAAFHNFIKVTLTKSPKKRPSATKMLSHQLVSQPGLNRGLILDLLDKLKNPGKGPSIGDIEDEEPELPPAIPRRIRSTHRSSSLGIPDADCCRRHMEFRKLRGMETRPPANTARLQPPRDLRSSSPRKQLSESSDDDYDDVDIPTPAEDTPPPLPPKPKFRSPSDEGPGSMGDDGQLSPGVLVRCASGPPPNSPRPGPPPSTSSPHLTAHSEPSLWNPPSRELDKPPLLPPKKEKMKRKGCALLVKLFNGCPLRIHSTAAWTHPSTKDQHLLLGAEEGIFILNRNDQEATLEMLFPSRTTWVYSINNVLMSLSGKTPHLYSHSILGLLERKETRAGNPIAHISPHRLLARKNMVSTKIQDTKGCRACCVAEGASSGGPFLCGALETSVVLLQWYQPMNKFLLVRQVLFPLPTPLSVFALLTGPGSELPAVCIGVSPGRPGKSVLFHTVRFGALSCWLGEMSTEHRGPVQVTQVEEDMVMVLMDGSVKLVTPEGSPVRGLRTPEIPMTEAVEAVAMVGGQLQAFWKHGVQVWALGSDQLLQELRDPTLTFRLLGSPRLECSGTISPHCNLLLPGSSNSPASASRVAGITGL

The assay addresses HPK1 (Homo sapiens (Human), UniProt Q92918). Description: HPK1 biochemical enzyme assay (microfluidic mobility shift assay). As to conditions: 1.5 nM HPK1, ATP 1 mM final, 30 min preincubation, 60 min at RT, Caliper EZ Reader; read-out: HPK1 1000UMATP caliper IC50. Summed up:
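Mobility shift readout of HPK1 activity after a 60 min RT reaction with 1 mM ATP, 1 μM substrate and 5 mM MgCl2. Enzyme/substrate mix was first exposed to compounds for 30 min, using ten-point curves topping at 3 μM final.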
A word on the IC50: it is the concentration needed to halve the response being measured. Take `Cn1ccc2c(-c3ccc(Nc4ccc(N5CCC[C@@H](O)C5)cn4)c4c3CNC4=O)ccnc21` [I-121, 7-[[5-[(3R)-3-hydroxy-1-piperidyl]-2-pyridyl]amino]-4-(1-methylpyrrolo [2,3-b]pyridin-4-yl)isoindolin-1-one]: the IC50 was under 0.1 µM.

Take `CN(Cc1nc(Nc2ccc(-c3cnc4cc(F)ccn34)c3c2C(=O)NC3)ccc1C1CCOC1)CC(F)(F)F` (stereo in doubt) [I-765, (R)-4-(7-fluoroimidazo [1,2-a]pyridin-3-yl)-7-((6-((methyl(2,2,2 trifluoroethyl)amino)methyl)-5-(tetrahydrofuran-3-yl)pyridin-2-yl)amino)isoin-dolin-1-one]: the IC50 is under 0.1 µM.

Turning to `CN(C)Cc1nc(Nc2ccc(-c3ccnc4c3ccn4C)c3c2C(=O)NC3)ccc1[C@H]1CCOC1` [I-546, (R)-7-((6-((dimethylamino)-methyl)-5-(tetrahydrofuran-3-yl)pyridin-2-yl)amino)-4-(1-methyl-1H-pyrrolo[2,3-b]pyridin-4-yl)isoindolin-1-one], the IC50 is under 0.1 µM.

As to `Cn1ccc2c(-c3ccc(Nc4ccc(N5CCC[C@H](O)C5)cn4)c4c3CNC4=O)ccnc21` [I-116, 7-[[5-[(3S)-3-hydroxy-1-piperidyl]-2-pyridyl]amino]-4-(1-methylpyrrolo [2,3-b]pyridin-4-yl)isoindolin-1-one], the half-inhibitory concentration (IC50) was under 0.1 µM.

Regarding `CN(C)CCN1CCC(c2ccc(Nc3ccc(-c4cnc5cc(F)ccn45)c4c3C(=O)NC4)nc2)CC1=O` (centres unmarked) [I-406, 7-((5-(1-(2-(dimethylami-no)ethyl)-2-oxopiperidin-4-yl)pyridin-2-yl)amino)-4-(7-fluoroimidazo [1,2-a]pyridin-3-yl)isoindolin-1-one], the IC50 is under 0.1 µM.

As for `O=C1NCc2c(-c3cnn4cccnc34)ccc(Nc3ccc(N4CCC(O)CC4)cn3)c21` [I-157, 7-[[5-(4-hydroxy-1-piperidyl)-2-pyridyl]amino]-4-pyrazolo[1,5-a]pyrimidin-3-yl-isoindolin-1-one], the IC50 is under 0.1 µM.

In the case of `CN1CCC(O)(c2ccc(Nc3ccc(-c4ccnc5c4ccn5C)c4c3C(=O)NC4)nc2)CC1` [I-274, 7-((5-(4-hydroxy-1-methylpiperidin-4-yl)pyridin-2-yl)amino)-4-(1-methyl-1H-pyrrolo[2,3-b]pyridin-4-yl)isoindolin-1-one], the IC50 was under 0.1 µM.

Consider `Cc1ccn2c(-c3ncc(Nc4ccc(N5CCNCC5)cn4)c4c3CNC4=O)cnc2c1` [I-124, 4-(7-methylimidazo [1,2-a]pyridin-3-yl)-7-[(5-piperazin-1-yl-2-pyridyl)amino]-2,3-dihydropyrrolo [3,4-c]pyridin-1-one], for which the IC50 was under 0.1 µM.

Take `CN1CCN(c2cccc(Nc3cnc(-c4ccnc5c4ccn5C)c4c3C(=O)NC4)n2)CC1` [I-327, 4-(1-methyl-1H-pyrrolo[2,3-b]pyridin-4-yl)-7-((6-(4-methylpiperazin-1-yl)pyridin-2-yl)amino)-2,3-dihydro-1H-pyrrolo[3,4-c]pyridin-1-one]: the IC50 is under 0.1 µM.

In the case of `Cn1nc(Nc2ccc(-c3cnc4cc(F)ccn34)c3c2C(=O)NC3)cc1C1CCOCC1` [I-408], the IC50 is under 0.1 µM.

In the case of `C[C@@H](c1ccc(Nc2ccc(-c3cnc4cc(F)ccn34)c3c2C(=O)NC3)nc1)N1CCOCC1` (single isomer, unassigned) [I-640], the IC50 is under 0.1 µM.

For `CN(C)C(C)(C)C1CCCN(c2ccc(Nc3ccc(-c4cnc5cc(F)ccn45)c4c3C(=O)NC4)nc2)C1` (stereo in doubt) [I-606, (R)-7-((5-(3-(2-(dimethylami-no)propan-2-yl)piperidin-1-yl)pyridin-2-yl)amino)-4-(7-fluoroimidazo [1,2-a]pyridin-3-yl)isoindolin-1-one], the IC50 was under 0.1 µM.

As for `Cn1ccc2c(-c3ncc(Nc4cccc(N5CCC6CNCC65)n4)c4c3CNC4=O)ccnc21` (stereo not drawn) [I-472, 7-[[6-(3,3a,4,5,6,6a-hexahydro-2H-pyrrolo[2,3-c]pyrrol-1-yl)-2-pyridyl]amino]-4-(1-methylpyrrolo [2,3-b]pyridin-4-yl)-2,3-dihydropyrrolo [3,4-c]pyridin-l-one], the IC50 was under 0.1 µM.

For the compound `O=C1NCc2c(-c3cnc4cc(F)ccn34)ccc(Nc3ccc(N4CCCC5(CNCCO5)C4)cn3)c21` (centres unmarked) [I-500, 4-(7-fluoroimidazo [1,2-a]pyridin-3-yl)-7-[[5-(1-oxa-4,8-diazaspiro[5.5]undecan-8-yl)-2-pyridyl]amino] isoindolin-1-one], the IC50 was under 0.1 µM.

As for `C[C@@H](c1nc(Nc2ccc(-c3cnc4cc(F)ccn34)c3c2C(=O)NC3)ccc1[C@H]1CCOC1)N(C)C` (single isomer, unassigned) [I-818], the IC50 was in the range of 0.1 to 1 µM.

Take `CN(Cc1nc(Nc2ccc(-c3cnc4cc(F)ccn34)c3c2C(=O)NC3)ccc1C1CCOC1)CC(F)(F)F` (stereo in doubt) [I-754, (S)-4-(7-fluoroimidazo [1,2-a]pyridin-3-yl)-7-((6-((methyl(2,2.2-trifluoroethyl)amino)methyl)-5-(tetrahydrofuran-3-yl)pyridin-2-yl)amino)isoin-dolin-1-one]: the IC50 was under 0.1 µM.

Take `Cn1ccc2c(-c3ncc(Nc4ccc(N5CCC[C@@](O)(CN6CCOCC6)C5)cn4)c4c3CNC4=O)ccnc21` (single isomer, unassigned) [I-673]: the IC50 is under 0.1 µM.

As for `O=C1NCc2c(-c3cnn4c3CCCC4)ncc(Nc3ccc(N4CCC(O)CC4)cn3)c21` [I-330, 7-((5-(4-hydroxypiperidin-1-yl)pyridin-2-yl)amino)-4-(4,5,6,7-tetrahydropyra-zolo[1,5-a]pyridin-3-yl)-2,3-dihydro-1H-pyrrolo[3,4-c]pyridin-1-one], the IC50 lay within 0.1 to 1 µM.

As for `Cc1ccn2c(-c3ccc(Nc4ccc(N5CCC[C@@H](C(C)(C)O)C5)cn4)c4c3CNC4=O)cnc2n1` [I-233, 7-[[5-[(3R)-3-(1-hydroxy-1-methyl-ethyl)-1-piperidyl)-2-pyridyl)-amino]-4-(7-methylimidazo [1,2-a]pyrimidin-3-yl]isoindolin-1-one], the IC50 is under 0.1 µM.

For `Cc1ccn2c(-c3ccc(Nc4ccc(CN5CCOCC5)cn4)c4c3CNC4=O)cnc2c1F` [I-468, 4-(8-fluoro-7-methyl-imidazo[1,2-a]pyridin-3-yl)-7-[[5-(morpholino-methyl)-2-pyridyl]amino] isoindolin-1-one], the IC50 was under 0.1 µM.

Regarding `CN1CCO[C@]2(CCCN(c3ccc(Nc4ccc(-c5cnc6cc(F)ccn56)c5c4C(=O)NC5)nc3)C2)C1` [I-506a, (R)-4-(7-fluoroimidazo [1,2-a]pyridin-3-yl)-7-((5-(4-methyl-1-oxa-4,8-diazaspiro[5.5]undecan-8-yl)pyridin-2-yl)amino)isoin-dolin-1-one], the IC50 is under 0.1 µM.

As to `Cc1cnn2c(-c3ccc(Nc4ccc(N5CCC(O)CC5)cn4)c4c3CNC4=O)ccnc12` [I-165, 7-[[5-(4-hydroxy-1-piperidxl)-2-pyridyl]amino]-4-(3-methylpyra-zolo[1,5-a]pyrimidin-7-yl)isoindolin-1-one], the IC50 is over 1 µM.

With `O=C1NCc2c(-c3cnc4cc(F)ccn34)ccc(Nc3ccc(CN4CCOCC4)cn3)c21` [I-238, 4-(7-fluoroimidazo [1,2-a]pyridin-3-yl)-7-[[5-(morpholino-methyl)-2-pyripyl]amino] isoindolin-1-one], the IC50 is under 0.1 µM.

For the compound `CO[C@H]1CCN(Cc2nc(Nc3ccc(-c4cnc5cc(F)ccn45)c4c3C(=O)NC4)ccc2[C@H]2CCOC2)C1` (stereo in doubt) [I-789], the IC50 was under 0.1 µM.

On to `O=C1NCc2c(-c3ccnc4ccnn34)ccc(Nc3ccc(N4CCNCC4)cn3)c21` [I-127, 7-[(5-piperazin-1-yl-2-pyridyl)amino]-4-pyrazolo[1,5-a]pyrimidin-7-yl-isoindolin-1-one], for which the IC50 was over 1 µM.

As for `O=C1NCc2c(-c3cnc4cc(F)ccn34)ccc(Nc3ccc(N4CCO[C@H](CN5CC(F)C5)C4)cn3)c21` [I-482, 7-[[5-[(2R)-2-[(3-fluoroazetidin-1-yl)methyl]mor pholin-4-yl]-2-pyridyl]amino] 4-(7-fluoroimidazo [1,2-a]pyridin-3-yl)isoindolin-1-one], the IC50 is under 0.1 µM.

Turning to `C[C@H](O)C1CCN(c2ccc(Nc3ccc(-c4cnc5cc(F)ccn45)c4c3C(=O)NC4)nc2)CC1` [I-214, 4-(7-fluoroimidazo [1,2-a]pyridin-3-yl)-7-[[5-[4-[(1S)-1-hydroxyethyl]-l-piperidyl]-2-pyridyl]amino] isoindolin-1-one], the IC50 was under 0.1 µM.

Regarding `C[C@@H](O)[C@H]1CCCN(c2ccc(Nc3ccc(-c4cnc5cc(F)ccn45)c4c3C(=O)NC4)nc2)C1` (stereo in doubt) [I-364, 4-(7-fluoroimidazo [1,2-a]pyridin-3-yl)-7-((5-((R)-3-((S)-1-hydroxyethyl)piperidin-1-yl)pyridin-2-yl)amino)isoin-dolin-1-one], the IC50 was under 0.1 µM.

Take `O=C1NCc2c(-c3cnc4cc(F)ccn34)ccc(Nc3ccc([C@H]4CCOC4)cn3)c21` [I-218, (R)-4-(7-fluoroimidazo [1,2-a]pyridin-3-yl)-7-((5-(tetrahydrofuran-3-yl)pyridin-2-yl)amino)isoin-dolin-1-one]: the IC50 is under 0.1 µM.

As for `COC[C@]1(O)CCCN(c2ccc(Nc3ccc(-c4cnc5cc(F)ccn45)c4c3C(=O)NC4)nc2)C1` [I-393, (S)-4-(7-fluoroimidazo [1,2-a]pyridin-3-yl)-7-((5-(3-hydroxy-3-(methoxymeth-yl)piperidin-1-yl)pyridin-2-yl)amino)isoin-dolin-1-one], the IC50 was under 0.1 µM.

Consider `Cn1ccc2c(-c3ccc(Nc4ccc(C5CCOC5)cn4)c4c3CNC4=O)ccnc21` (centres unmarked) [I-108, 4-(1-methylpyrrolo [2,3-b]pyridin-4-yl)-7-[(5-THF-3-yl-2-pyridyl)amino] isoindolin-1-one], for which the IC50 was under 0.1 µM.

In the case of `COc1cc(N2CCC(O)CC2)cnc1Nc1ccc(-c2ccnc3c2ccn3C)c2c1C(=O)NC2` [I-267, 7-((5-(4-hydroxy-piperidin-1-yl)-3-methoxypyridin-2-yl)amino)-4-(1-methyl-1H-pyrrolo[2,3-b]pyridin-4-yl)isoindolin-1-one], the IC50 was over 1 µM.

The record behind these values is US11021481B2, “Substituted isoindolin-1-ones and 2,3-dihydro-1h-pyrrolo[3,4-c]pyridin-1-ones as HPK1 antagonists” (Nimbus Saturn, Inc., priority 2019, dated 2021).
